Laboratory results as given in patent publication US10617621B2, “Antimicrobial composition” (Conopco, Inc., priority 2016, dated 2020).
Counter-ions that a name gives are not always drawn. Like-named read-outs stand apart in the source and are kept apart here.

Tested on: Malassezia furfur
Experiment: ΣFIC assay against Malassezia furfur (checkerboard in-vitro susceptibility testing, alamar blue)
Type: cell-based, M. furfur (CBS 1878)
Description: A brief description of the method is given below.
Methods: ΣFIC Assay Against Malassezia furfur
They are then incubated at 32° C. for 48 hrs with shaking. Then, 1 ml of the first broth culture is transferred into 9 ml of fresh PB and incubated at 32° C. for 48 hrs with shaking. The final culture should contain 2 to 6×10^6 cells/ml. This is achieved by diluting using PB to 5*10^6 cell/ml.
The piperazine compound was serially diluted (2-fold) to prepare in a range of 10-10,000 ppm in growth medium.
Binary combinations of ZPTO and the testing compound were prepared in 96-well plate by mixing 20 μl of zinc pyrithione solution with 20 μl of testing compound. The solution in each well were further mixed with 160 μl of PB and 20 μl of M. furfur. The final cell density in the testing plate is around 5*10^4 cell/ml, and the final concentration of actives in each well of the 96-well plate were shown below.
The plate was incubated at 32° C. for one day. Then 20 μl of alamar blue (0.01%) was added into each well with a further incubation for one day to observe the color change. Red color indicates microbial growth and the non-changing blue color indicates no growth.
The MIC is defined as the absolute lowest concentration of active that provides complete microbial growth inhibition as indicated by the blue color of alamar blue under the tested condition.
The differing behaviours of inhibitory antimicrobials in isolation and mixtures have been widely explored using the concept of the Fractional Concentration (FC) and Fractional Inhibitory Concentration (FIC). The parameter can be defined as follows: […]
The interactions between antimicrobials can be additive, synergistic or antagonistic depending on whether the efficacy of the combination is equivalent to, greater than or less than that obtained for the same total concentration of the individual components when tested alone.
These relationships can be expressed mathematically by summing the fractional MIC values for all the components present in the mixture to give the “fractional inhibition index”. There is no consistent approach in the academic or patent literature in defining precise limiting ΣFIC values that differentiate synergy from additivity or antagonism. In this study, we have adopted a liberal approach defining any binary mixture with ΣFIC<0.9 as showing evidence of synergistic behavior.
ΣFIC=FIC (component 1)+FIC (component 2)
ΣFIC=1 corresponds to additive bactericidal activity
ΣFIC>1 corresponds to antagonistic bactericidal activity
ΣFIC<0.9 corresponds to synergistic bactericidal activity

[1] = CBS1878, active alone, M. furfur CBS 1878 in Pityrosporum Broth, 32° C., complete growth inhibition by alamar blue, read-out: Minimum Inhibition Concentration (MIC)
[2] = CBS1878, read-out: Minimum Inhibition Concentration (MIC)

Row | Structure (SMILES) | MIC [1] [µg/mL] | MIC [2] [µg/mL]
1 | O=C(c1ccccc1F)N1CCN(C2CCC(c3ccccc3)CC2)CC1 (centres unmarked) [1-(2-fluorobenzoyl)-4-(4-phenylcylcohexyl)piperazine] | 100 | 
2 | CCc1ccc(CN2CCN(Cc3cccc(Cl)c3)CC2)cc1 [1-(3-chlorobenzyl)-4-(4-ethylbenzyl)piperazine oxalate] |  | > 1000
3 | CCc1ccc(CN2CCN(C3CCC(C)CC3)CC2)cc1 (centres unmarked) [1-(4-ethylbenzyl)-4-(4-methylcyclohexyl)piperazine oxalate] |  | 125
4 | CC(C)C(=O)N1CCN(c2ccc(F)cc2)CC1 [1-(4-fluorophenyl)-4-isobutyrylpiperazine] | > 1000 | 
5 | CC(C)C(=O)N1CCN(c2ccccc2)CC1 [1-isobutyryl-4-phenylpiperazine] | > 1000 | 
